# According to ChEMBL document CHEMBL1681785, “Structure-activity relationships of flavonoids as inhibitors of breast cancer resistance protein (BCRP)” (Bioorg Med Chem, 2011):
# Activity calls are given as the source filed them. No cut-off for these calls is given here.
# Key:
# A2780 = experiment: Cytotoxicity against human A2780 cells assessed as intracellular ATP level at 10 uM after 72 hrs by luminometry; type: functional, cell-based
# MCF7 = experiment: Cytotoxicity against human MCF7 cells assessed as intracellular ATP level at 10 uM after 72 hrs by luminometry; type: functional, cell-based
# [1] = biological target: T1, Broad substrate specificity ATP-binding cassette transporter ABCG2 (Homo sapiens, UniProt Q9UNQ0); experiment: Inhibition of BCRP expressed in MDCK cells using Hoechst 33342 staining; type: cell-based; details: read-out: IC50
# T1 sequence (Q9UNQ0 whole entry): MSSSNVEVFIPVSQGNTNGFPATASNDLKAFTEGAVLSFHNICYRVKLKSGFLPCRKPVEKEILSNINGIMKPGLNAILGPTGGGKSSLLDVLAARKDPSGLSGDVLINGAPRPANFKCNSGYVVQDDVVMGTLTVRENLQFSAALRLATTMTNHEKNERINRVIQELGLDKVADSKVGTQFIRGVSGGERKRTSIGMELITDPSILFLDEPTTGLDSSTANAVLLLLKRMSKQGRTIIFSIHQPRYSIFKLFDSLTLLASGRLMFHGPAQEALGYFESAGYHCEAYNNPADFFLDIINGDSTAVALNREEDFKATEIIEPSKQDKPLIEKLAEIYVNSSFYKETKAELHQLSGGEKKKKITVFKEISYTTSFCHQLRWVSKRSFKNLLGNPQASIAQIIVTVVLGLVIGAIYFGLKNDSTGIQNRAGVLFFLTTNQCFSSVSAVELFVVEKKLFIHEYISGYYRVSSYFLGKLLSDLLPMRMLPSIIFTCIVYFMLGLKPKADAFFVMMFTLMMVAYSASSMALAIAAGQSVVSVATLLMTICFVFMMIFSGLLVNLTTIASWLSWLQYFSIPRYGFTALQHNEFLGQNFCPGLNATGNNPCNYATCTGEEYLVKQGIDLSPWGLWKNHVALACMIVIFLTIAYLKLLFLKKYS
# [2] = biological target: T1, Broad substrate specificity ATP-binding cassette transporter ABCG2; experiment: Inhibition of BCRP expressed in MCF-7 MX cells using Hoechst 33342 staining; type: cell-based, MCF7; details: read-out: IC50
# [3] = Inhibition of P-gp expressed in A2780adr cells by calcein AM accumulation assay; type: cell-based; details: A2780 ADR
# [4] = biological target: ATP-dependent translocase ABCB1 (Homo sapiens, UniProt P08183); experiment: Inhibition of MDR1 expressed in MDCK cells using rhodamine 123 staining by flow cytometry; type: cell-based
# A2780 ADR = experiment: Inhibition of P-gp expressed in A2780adr cells at 10 uM by calcein AM accumulation assay relative to verapamil; type: cell-based
# [5] = biological target: Multidrug resistance-associated protein 1 (Homo sapiens, UniProt P33527); experiment: Inhibition of MRP1 expressed in human 2008 cells assessed as calcein AM accumulation by cell based assay
# Chain of Multidrug resistance-associated protein 1 (P33527 whole entry): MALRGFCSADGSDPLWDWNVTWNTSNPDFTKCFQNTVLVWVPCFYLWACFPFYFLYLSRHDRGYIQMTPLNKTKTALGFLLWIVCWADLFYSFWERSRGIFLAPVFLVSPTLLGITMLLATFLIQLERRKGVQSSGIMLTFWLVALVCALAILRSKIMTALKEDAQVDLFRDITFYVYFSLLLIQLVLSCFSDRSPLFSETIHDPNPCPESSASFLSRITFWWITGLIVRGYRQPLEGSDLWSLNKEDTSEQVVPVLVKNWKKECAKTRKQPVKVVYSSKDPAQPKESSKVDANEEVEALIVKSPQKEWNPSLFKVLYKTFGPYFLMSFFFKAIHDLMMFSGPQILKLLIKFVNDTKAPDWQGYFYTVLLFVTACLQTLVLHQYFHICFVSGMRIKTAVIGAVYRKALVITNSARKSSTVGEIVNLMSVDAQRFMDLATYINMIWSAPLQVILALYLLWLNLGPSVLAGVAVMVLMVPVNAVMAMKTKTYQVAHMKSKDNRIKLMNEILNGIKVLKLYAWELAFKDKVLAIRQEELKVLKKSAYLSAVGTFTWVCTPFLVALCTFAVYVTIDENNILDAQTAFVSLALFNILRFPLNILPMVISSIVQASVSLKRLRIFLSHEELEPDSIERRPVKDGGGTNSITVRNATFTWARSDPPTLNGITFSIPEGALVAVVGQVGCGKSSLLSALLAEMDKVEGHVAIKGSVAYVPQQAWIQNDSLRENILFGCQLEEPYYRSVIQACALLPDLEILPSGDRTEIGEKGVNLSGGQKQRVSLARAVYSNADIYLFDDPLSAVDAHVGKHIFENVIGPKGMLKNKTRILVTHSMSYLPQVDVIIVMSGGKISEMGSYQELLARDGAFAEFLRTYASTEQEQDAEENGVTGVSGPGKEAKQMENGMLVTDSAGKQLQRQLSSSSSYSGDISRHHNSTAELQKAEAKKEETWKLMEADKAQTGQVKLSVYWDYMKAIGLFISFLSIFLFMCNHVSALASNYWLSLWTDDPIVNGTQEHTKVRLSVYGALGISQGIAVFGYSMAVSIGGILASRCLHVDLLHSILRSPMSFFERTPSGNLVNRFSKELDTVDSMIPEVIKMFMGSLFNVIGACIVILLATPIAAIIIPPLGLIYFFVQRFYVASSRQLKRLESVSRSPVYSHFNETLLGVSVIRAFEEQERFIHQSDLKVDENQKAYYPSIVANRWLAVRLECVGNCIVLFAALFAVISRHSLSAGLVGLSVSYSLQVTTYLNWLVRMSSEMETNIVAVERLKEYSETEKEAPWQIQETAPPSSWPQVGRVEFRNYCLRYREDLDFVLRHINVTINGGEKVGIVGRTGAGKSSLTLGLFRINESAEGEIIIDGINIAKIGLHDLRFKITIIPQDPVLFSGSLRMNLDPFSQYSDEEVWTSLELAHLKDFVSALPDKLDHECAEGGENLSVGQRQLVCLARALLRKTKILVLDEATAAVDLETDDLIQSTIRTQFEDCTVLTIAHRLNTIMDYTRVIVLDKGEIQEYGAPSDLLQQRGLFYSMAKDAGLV
# Chain of ATP-dependent translocase ABCB1 (P08183 whole entry): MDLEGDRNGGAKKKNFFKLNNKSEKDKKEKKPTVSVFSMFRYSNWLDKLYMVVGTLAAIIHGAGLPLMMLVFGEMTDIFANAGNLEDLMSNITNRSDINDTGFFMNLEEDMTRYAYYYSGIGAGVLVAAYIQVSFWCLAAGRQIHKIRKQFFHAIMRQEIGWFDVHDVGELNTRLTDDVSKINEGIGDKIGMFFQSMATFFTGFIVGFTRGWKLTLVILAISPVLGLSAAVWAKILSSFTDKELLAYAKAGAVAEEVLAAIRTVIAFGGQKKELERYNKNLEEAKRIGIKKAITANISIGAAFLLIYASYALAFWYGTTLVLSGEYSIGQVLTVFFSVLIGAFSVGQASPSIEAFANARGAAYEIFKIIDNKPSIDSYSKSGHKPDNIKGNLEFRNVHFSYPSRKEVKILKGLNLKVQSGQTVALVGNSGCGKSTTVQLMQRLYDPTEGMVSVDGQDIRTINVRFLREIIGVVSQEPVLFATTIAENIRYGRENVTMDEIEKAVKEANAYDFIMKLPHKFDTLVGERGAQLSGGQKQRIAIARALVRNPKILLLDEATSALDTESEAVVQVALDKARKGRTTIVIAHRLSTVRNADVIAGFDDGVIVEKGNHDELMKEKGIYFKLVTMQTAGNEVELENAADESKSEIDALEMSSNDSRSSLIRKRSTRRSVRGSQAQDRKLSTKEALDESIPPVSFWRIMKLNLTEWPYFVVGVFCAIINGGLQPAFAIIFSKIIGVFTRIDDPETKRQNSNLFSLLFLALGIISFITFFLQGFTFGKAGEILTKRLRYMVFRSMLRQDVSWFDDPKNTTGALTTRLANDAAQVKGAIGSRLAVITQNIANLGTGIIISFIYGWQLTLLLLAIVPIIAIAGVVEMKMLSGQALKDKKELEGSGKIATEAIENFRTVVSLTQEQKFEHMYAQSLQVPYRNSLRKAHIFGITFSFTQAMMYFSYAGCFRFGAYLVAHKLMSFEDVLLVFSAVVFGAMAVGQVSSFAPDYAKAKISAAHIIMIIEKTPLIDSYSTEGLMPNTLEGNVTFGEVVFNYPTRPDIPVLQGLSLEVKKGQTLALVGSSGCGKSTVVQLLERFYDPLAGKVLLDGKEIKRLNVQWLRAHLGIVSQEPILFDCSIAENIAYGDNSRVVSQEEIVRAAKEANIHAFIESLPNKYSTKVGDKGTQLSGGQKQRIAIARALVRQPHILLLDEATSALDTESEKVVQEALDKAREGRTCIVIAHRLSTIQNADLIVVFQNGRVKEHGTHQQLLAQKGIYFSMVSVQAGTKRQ
IC50 [1] [µM],IC50 [2] [µM],IC50 [3] [µM],IC50 [4] [µM],IC50 [5] [µM],SMILES,Activity (A2780),Activity (MCF7),inhibition (A2780 ADR)
0.39,0.9,12,16,50,COc1cc(O)c2c(=O)c(OC)c(-c3ccc(OC)c(OC)c3)oc2c1 [RETUSIN],inactive,inactive,inactive
0.46,0.68,9.4,13,50,COc1cc(O)c2c(=O)c(OC)c(-c3ccc(OC)c(O)c3)oc2c1 [AYANIN],inactive,inactive,inactive
–,–,–,–,12.6,COc1ccc2c(c1)c(CC(=O)O)c(C)n2C(=O)c1ccc(Cl)cc1 [INDOMETHACIN],–,–,–
